The Emax is the size of the effect at its maximum, as opposed to the concentration needed. In general, EC50 refers to the concentration needed to bring the measured effect to its halfway point.

The assay deals with T1, hGIP-R (Homo sapiens, UniProt P48546).
T1 construct: expressed in transfected cells; host or cells: HEK-293 clonal cell lines
T1 sequence (P48546 22-466): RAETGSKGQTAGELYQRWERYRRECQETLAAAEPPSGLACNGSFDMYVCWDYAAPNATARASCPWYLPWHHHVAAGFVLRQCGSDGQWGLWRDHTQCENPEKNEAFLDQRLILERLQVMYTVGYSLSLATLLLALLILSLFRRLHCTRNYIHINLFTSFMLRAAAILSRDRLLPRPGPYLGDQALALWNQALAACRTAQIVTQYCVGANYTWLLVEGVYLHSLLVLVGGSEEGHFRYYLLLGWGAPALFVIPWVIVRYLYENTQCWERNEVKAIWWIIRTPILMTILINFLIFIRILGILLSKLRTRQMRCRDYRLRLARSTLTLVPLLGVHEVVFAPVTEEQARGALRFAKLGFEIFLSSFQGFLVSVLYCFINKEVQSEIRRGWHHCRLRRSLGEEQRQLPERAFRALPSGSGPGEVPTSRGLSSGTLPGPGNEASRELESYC
Description: Functional hGIP-R Assay (cAMP formation, HTRF). The assay is classed as cell-based. Particulars: for Emax: cAMP efficacy, percent of maximal response to GIP(1-42)OH, 37° C., 0.1% bovine casein, arithmetic mean ± SEM; for EC50: cAMP potency, HEK-293 cells expressing hGIP-R, incubated at 37° C. in the presence of 0.1% bovine casein, geometric mean, read-out: Human GIP-R EC50, nM (SEM, n). Summed up: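 Relative EC50 and Emax came from four-parameter logistic fits of cAMP as a percent of the human GIP (1-42) OH maximal response. The cAMP was measured by competitive HTRF after 30 min, 37 °C compound exposure of hGIP-R HEK-293 clones in IBMX (250 μM)-containing medium.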
(Cyclic AMP is a second messenger, typically raised through Gs and lowered through Gi signalling.)

Regarding `COCc1cn2cc(-c3ccc([C@H]4C[C@@]45CCN([C@H](Cc4cnn(C(F)F)c4)C(=O)NC(C)(C)Cn4nc(C(F)(F)F)cc4-c4ccnc(C(C)(C)O)c4)C5=O)c(C)n3)cnc2n1` [Example 160, (R)-3-(1-(difluoromethyl)-1H-pyrazol-4-yl)-N-(1-(5-(2-(2-hydroxypropan-2-yl)pyridin-4-yl)-3-(trifluoromethyl)-1H-pyrazol-1-yl)-2-methylpropan-2-yl)-2-((1R,3R)-1-(6-(2-(methoxymethyl)imidazo[1,2-a]pyrimidin-6-yl)-2-methylpyridin-3-yl)-4-oxo-5-azaspiro[2.4]heptan-5-yl)propanamide], the Emax was 119 ± 3.76% and the EC50 turned out to be 1.24 nM.
On to `Cn1cc2cc(-c3ccc([C@H]4C[C@@]45CCN([C@H](Cc4cnn(C(F)F)c4)C(=O)NC(C)(C)Cn4nc(C(F)(F)F)cc4-c4ccn(C6CC6)c(=O)n4)C5=O)c(Cl)c3)cnc2n1` [Example 161, (R)-2-((1S,3R)-1-(2-chloro-4-(2-methyl-2H-pyrazolo[3,4-b]pyridin-5-yl)phenyl)-4-oxo-5-azaspiro[2.4]heptan-5-yl)-N-(1-(5-(1-cyclopropyl-2-oxo-1,2-dihydropyrimidin-4-yl)-3-(trifluoromethyl)-1H-pyrazol-1-yl)-2-methylpropan-2-yl)-3-(1-(difluoromethyl)-1H-pyrazol-4-yl)propanamide], for which the Emax amounted to 71.7 ± 1.02% and the EC50 was 1.47 nM.
In the case of `Cn1cc2cc(-c3ccc([C@H]4C[C@@]45CCN([C@H](Cc4cnn(C(F)F)c4)C(=O)NC(C)(C)Cn4nc(C(F)(F)F)cc4-c4ccc(P(C)(C)=O)cc4)C5=O)c(Cl)c3)cnc2n1` [Example 162, (R)-2-((1S,3R)-1-(2-chloro-4-(2-methyl-2H-pyrazolo[3,4-b]pyridin-5-yl)phenyl)-4-oxo-5-azaspiro[2.4]heptan-5-yl)-3-(1-(difluoro-methyl)-1H-pyrazol-4-yl)-N-(1-(5-(4-(dimethyl-phosphoryl)phenyl)-3-(trifluoro-methyl)-1H-pyrazol-1-yl)-2-methylpropan-2-yl)propanamide], the Emax came out at 50% and the EC50 was determined as 0.179 nM.
Taken in the same sequence, the figures for `Cn1cc2cc(-c3ccc([C@H]4C[C@@]45CCN([C@H](Cc4cnn(C(F)F)c4)C(=O)NC(C)(C)Cn4nc(C(F)(F)F)cc4P(C)(C)=O)C5=O)c(Cl)c3)cnc2n1` [Example 163, (R)-2-((1S,3R)-1-(2-chloro-4-(2-methyl-2H-pyrazolo[3,4-b]pyridin-5-yl)phenyl)-4-oxo-5-azaspiro[2.4]heptan-5-yl)-3-(1-(difluoro-methyl)-1H-pyrazol-4-yl)-N-(1-(5-(dimethyl-phosphoryl)-3-(trifluoro-methyl)-1H-pyrazol-1-yl)-2-methylpropan-2-yl)propanamide] were 109% and 3.95 nM.
Regarding `CCn1cc2cc(-c3ccc([C@H]4C[C@@]45CCN([C@H](Cc4cnn(C(F)F)c4)C(=O)NC(C)(C)Cn4nc(C(F)(F)F)cc4-c4cnc(C(C)(C)O)nc4)C5=O)c(C)n3)cnc2n1` [Example 164, (R)-3-(1-(difluoromethyl)-1H-pyrazol-4-yl)-2-((1R,3R)-1-(6-(2-ethyl-2H-pyrazolo[3,4-b]pyridin-5-yl)-2-methylpyridin-3-yl)-4-oxo-5-azaspiro[2.4]heptan-5-yl)-N-(1-(5-(2-(2-hydroxypropan-2-yl)pyrimidin-5-yl)-3-(trifluoromethyl)-1H-pyrazol-1-yl)-2-methylpropan-2-yl)propanamide], the maximal effect (Emax) is 53.3 ± 0.286% and the EC50 came out at 4.31 nM.
Consider `Cc1cn2cc(-c3ccc([C@H]4C[C@@]45CCN([C@H](Cc4cnn(C(F)F)c4)C(=O)NC(C)(C)Cn4nc(C(F)(F)F)cc4-c4ccn(C6CC6)c(=O)c4)C5=O)c(Cl)c3)cnc2n1` [Example 165, (R)-2-((1S,3R)-1-(2-chloro-4-(2-methylimidazo[1,2-a]pyrimidin-6-yl)phenyl)-4-oxo-5-azaspiro[2.4]heptan-5-yl)-N-(1-(5-(1-cyclopropyl-2-oxo-1,2-dihydropyridin-4-yl)-3-(trifluoromethyl)-1H-pyrazol-1-yl)-2-methylpropan-2-yl)-3-(1-(difluoromethyl)-1H-pyrazol-4-yl)propanamide], for which the Emax is 65.7 ± 4.25% and the EC50 is 0.44 nM.
With `COCc1cn2cc(-c3ccc([C@H]4C[C@@]45CCN([C@H](Cc4cnn(C(F)F)c4)C(=O)NC(C)(C)Cn4nc(C(F)(F)F)cc4-c4ccc(C(C)(C)O)nc4)C5=O)c(C)n3)cnc2n1` [Example 168, (R)-3-(1-(difluoromethyl)-1H-pyrazol-4-yl)-N-(1-(5-(6-(2-hydroxypropan-2-yl)pyridin-3-yl)-3-(trifluoromethyl)-1H-pyrazol-1-yl)-2-methylpropan-2-yl)-2-((1R,3R)-1-(6-(2-(methoxymethyl)imidazo[1,2-a]pyrimidin-6-yl)-2-methylpyridin-3-yl)-4-oxo-5-azaspiro[2.4]heptan-5-yl)propanamide], the Emax is 110% and the EC50 came out at 1.81 nM.
Taken in the same sequence, the figures for `Cc1nc(-c2cnc3nn(C4CC4)cc3c2)ccc1[C@H]1C[C@@]12CCN([C@H](Cc1cnn(C(F)F)c1)C(=O)NC(C)(C)Cn1nc(C(F)(F)F)cc1-c1ccn(C3CC3)c(=O)c1)C2=O` [Example 169, (R)—N-(1-(5-(1-cyclopropyl-2-oxo-1,2-dihydropyridin-4-yl)-3-(trifluoromethyl)-1H-pyrazol-1-yl)-2-methylpropan-2-yl)-2-((1R,3R)-1-(6-(2-cyclopropyl-2H-pyrazolo[3,4-b]pyridin-5-yl)-2-methylpyridin-3-yl)-4-oxo-5-azaspiro[2.4]heptan-5-yl)-3-(1-(difluoromethyl)-1H-pyrazol-4-yl)propanamide] were 58.9 ± 1.86% and 1.15 nM.
In the case of `Cc1nc(-c2cnc3nc(C4CC4)cn3c2)ccc1[C@H]1C[C@@]12CCN([C@H](Cc1cnn(C(F)F)c1)C(=O)NC(C)(C)Cn1nc(C(F)(F)F)cc1-c1cc(F)c(=O)n(C)c1)C2=O` [Example 170, (R)-2-((1R,3R)-1-(6-(2-cyclopropylimidazo[1,2-a]pyrimidin-6-yl)-2-methylpyridin-3-yl)-4-oxo-5-azaspiro[2.4]heptan-5-yl)-3-(1-(difluoromethyl)-1H-pyrazol-4-yl)-N-(1-(5-(5-fluoro-1-methyl-6-oxo-1,6-dihydropyridin-3-yl)-3-(trifluoromethyl)-1H-pyrazol-1-yl)-2-methylpropan-2-yl)propanamide], the maximal response (Emax) worked out at 97.2 ± 0.998% and the concentration for a half-maximal effect (EC50) was determined as 0.846 nM.
Taken in the same sequence, the figures for `Cc1nc(-c2ccc(C(C)(C)O)nc2)ccc1[C@H]1C[C@@]12CCN([C@H](Cc1cnn(C(F)F)c1)C(=O)NC(C)(C)Cn1nc(C(F)(F)F)cc1-c1ccn(C3CC3)c(=O)c1)C2=O` [Example 171, (R)-N-(1-(5-(1-cyclopropyl-2-oxo-1,2-dihydropyridin-4-yl)-3-(trifluoromethyl)-1H-pyrazol-1-yl)-2-methylpropan-2-yl)-3-(1-(difluoromethyl)-1H-pyrazol-4-yl)-2-((1R,3R)-1-(6′-(2-hydroxypropan-2-yl)-6-methyl-[2,3′-bipyridin]-5-yl)-4-oxo-5-azaspiro[2.4]heptan-5-yl)propanamide] were 25.1 ± 2.38% and 14.2 nM.
Regarding `COc1ccc(-c2ccc([C@H]3C[C@@]34CCN([C@H](Cc3cnn(C(F)F)c3)C(=O)NC(C)(C)Cn3nc(C(F)(F)F)cc3-c3ccn(C5CC5)c(=O)c3)C4=O)c(C)n2)cn1` [Example 172, (R)-N-(1-(5-(1-cyclopropyl-2-oxo-1,2-dihydropyridin-4-yl)-3-(trifluoromethyl)-1H-pyrazol-1-yl)-2-methylpropan-2-yl)-3-(1-(difluoromethyl)-1H-pyrazol-4-yl)-2-((1R,3R)-1-(6′-methoxy-6-methyl-[2,3′-bipyridin]-5-yl)-4-oxo-5-azaspiro[2.4]heptan-5-yl)propanamide], the Emax is 12.6 ± 0.102% and the EC50 was 3.16 nM.
`COc1ncc(-c2ccc([C@H]3C[C@@]34CCN([C@H](Cc3cnn(C(F)F)c3)C(=O)NC(C)(C)Cn3nc(C(F)(F)F)cc3-c3ccn(C5CC5)c(=O)c3)C4=O)c(C)n2)cn1` [Example 173, (R)-N-(1-(5-(1-cyclopropyl-2-oxo-1,2-dihydropyridin-4-yl)-3-(trifluoromethyl)-1H-pyrazol-1-yl)-2-methylpropan-2-yl)-3-(1-(difluoromethyl)-1H-pyrazol-4-yl)-2-((1R,3R)-1-(6-(2-methoxypyrimidin-5-yl)-2-methylpyridin-3-yl)-4-oxo-5-azaspiro[2.4]heptan-5-yl)propanamide]: the Emax came to 15.9 ± 0.138% and the EC50 was 24.6 nM.
Turning to `COc1ncc(-c2ccc([C@H]3C[C@@]34CCN([C@H](Cc3cnn(C(F)F)c3)C(=O)NC(C)(C)Cn3nc(C(F)(F)F)cc3-c3ccn(C5CC5)c(=O)c3)C4=O)c(C)n2)cc1F` [Example 174, (R)-N-(1-(5-(1-cyclopropyl-2-oxo-1,2-dihydropyridin-4-yl)-3-(trifluoromethyl)-1H-pyrazol-1-yl)-2-methylpropan-2-yl)-3-(1-(difluoromethyl)-1H-pyrazol-4-yl)-2-((1R,3R)-1-(5′-fluoro-6′-methoxy-6-methyl-[2,3′-bipyridin]-5-yl)-4-oxo-5-azaspiro[2.4]heptan-5-yl)propanamide], the Emax turned out to be 13.4 ± 1.64% and the EC50 is 6.09 nM.

The values above are taken from US20260108546A1 (ELI LILLY AND COMPANY, priority 2024, published 2026).
